The assay deals with Mycobacterium tuberculosis variant bovis. Description: Antibacterial activity against Mycobacterium bovis BCG assessed as inhibition of bacterial growth incubated for 15 days by REMA method. Conditions: 360 h, time 15 day. The format is functional.

SMILES strings stand for the structures. In brackets after ≈: the same amount, converted by molar mass.

The term MIC99 denotes an inhibitory concentration at the 99% level, which refers to growth in some studies and to a panel of isolates in others. On to `N#Cc1cc(OCCOc2ccccc2)cc(-c2ccc(C(=O)O)o2)c1`, for which the MIC99 was determined as 63 µM (≈ 22 µg/mL).

For the origin of these results see ChEMBL document CHEMBL5365393, “Comprehensive coverage on anti-mycobacterial endeavour reported during 2022” (Eur J Med Chem, 2023).
